This note sets out measurements from ChEMBL document CHEMBL1201862, “PubChem BioAssay data set” (2004).

Holding throughout (test): DTP human tumour cell line panel, 48 h
For assay [1], the system named is HOP-62.
For assay [2], the system named is SF-295.
Assay [3] relates to SK-MEL-2.
Assay [4] concerns MOLT-4.
The test system of assay [5] is RPMI-8226.
For assay [6], the system named is HCT-116.
Assay [7] relates to SK-OV-3.
Assay [8] relates to HL-60.
Assay [9] has as its system OVCAR-8.
The test system of assay [10] is CCRF-CEM.
For assay [11], the system named is HT-29.
The subject of assay [12] is UO-31.
The subject of assay [13] is HCT-15.
The subject of assay [14] is SK-MEL-28.
The subject of assay [15] is HCC 2998.
Assay [16] deals with NCI-H460.
In assay [17] the test system is UACC-62.
In assay [18] the test system is K562.
Assay [19] deals with OVCAR-5.
The subject of assay [20] is SN12C.

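Test compounds were applied to cells in 96-well plates for 48 hours at 5 doses. Abbreviation: GI50, concentration required for 50% inhibition of growth.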 The source made the active and inactive calls. No stated cut-off is given here; in the data, active = GI50 up to about 1.1 µM and inactive = higher.

Take `CCCCCOc1ccc(/C=N\c2ccc(-c3ccc(/N=C\c4ccc(OCCCCC)cc4)c(OC)c3)cc2OC)cc1`: the GI50 in [1], in [2], in assay [3], in [4], in [5] and in assay [6] was > 100 µM (inactive) each time. In addition, the GI50 – broadly, the concentration that inhibits growth by half – was > 100 µM (inactive) in assay [7]; > 100 µM (inactive) in assay [8]; > 100 µM (inactive) in assay [9]; > 100 µM (inactive) in assay [10]; > 100 µM (inactive) in [11]; > 80.2 µM (inactive) in [12]. Further, the GI50 in assay [13] was above 100 µM; in assay [14], > 100 µM (inactive); in assay [15], > 100 µM (inactive); in assay [16], > 100 µM (inactive); in assay [17], > 100 µM (inactive); in [18] it was > 31.6 µM (inactive). The GI50 in assay [19] and in assay [20] was > 100 µM (inactive) throughout.
As for `CC(C(=O)OCc1ccccc1)N(Cc1ccccc1)Cc1ccccc1` (stereo not given), the GI50 in [1] was > 100 µM (inactive); in assay [2], > 100 µM (inactive); in assay [3], 29.6 µM (inactive); in assay [4] it was 33 µM (inactive); in assay [5] it was 35.9 µM (inactive); in assay [6] it was > 100 µM (inactive). Besides, the GI50 was > 100 µM (inactive) in [7]; 21 µM (inactive) in assay [8]; > 100 µM (inactive) in [9]; 53.5 µM (inactive) in assay [10]; 46.8 µM (inactive) in assay [11]; 75.3 µM (inactive) in assay [12]. The GI50 was above 100 µM in [13]; > 100 µM (inactive) in [14]; > 100 µM (inactive) in assay [15]; > 100 µM (inactive) in [16]; > 100 µM (inactive) in assay [17]; 77.8 µM (inactive) in assay [18]. Besides, the GI50 in [19] and in [20] was > 100 µM (inactive) throughout.
Take `CN(C)CCNC(=O)c1cccc2nc(-c3ccccc3)oc12`: the GI50 in assay [1] was > 66.7 µM (inactive); in [2], 31.3 µM (inactive); in assay [3], > 62.5 µM (inactive); in assay [4], 10.9 µM (inactive); in assay [5] it was 34.6 µM (inactive); in assay [6] it was 32.1 µM (inactive). Besides, the GI50 in assay [7] is 34.4 µM (inactive); in [8], 8.18 µM (inactive); in assay [9], 35.9 µM (inactive); in assay [10], 45.6 µM (inactive); in assay [11] it was 31 µM (inactive); in assay [12], 17.4 µM (inactive). Moreover, the GI50 in assay [13] was 43.6 µM; in assay [14], 60.1 µM (inactive); in assay [15], 54.5 µM (inactive); in [16], 30.4 µM (inactive); in assay [17], 31.5 µM (inactive); in [18] it was 1.94 µM (inactive). Further, the GI50 is 38.5 µM (inactive) in [19] and 41.1 µM (inactive) in assay [20].
